In article PMC4825926, “FleA Expression in Aspergillus fumigatus Is Recognized by Fucosylated Structures on Mucins and Macrophages to Prevent Lung Infection” (PLoS Pathogens, 2016):
Like-named read-outs stand apart in the source and are kept apart here.

How the values were obtained:
[1] = target: T1, FleA (AFL, Aspergillus fumigatus lectin) (Aspergillus fumigatus, UniProt Q4WW81); test: competition plate assay: biotinylated FleA binding to immobilised human airway mucin
T1 construct: about 34 kDa; no canonical signal peptide
T1 sequence (Q4WW81 whole entry): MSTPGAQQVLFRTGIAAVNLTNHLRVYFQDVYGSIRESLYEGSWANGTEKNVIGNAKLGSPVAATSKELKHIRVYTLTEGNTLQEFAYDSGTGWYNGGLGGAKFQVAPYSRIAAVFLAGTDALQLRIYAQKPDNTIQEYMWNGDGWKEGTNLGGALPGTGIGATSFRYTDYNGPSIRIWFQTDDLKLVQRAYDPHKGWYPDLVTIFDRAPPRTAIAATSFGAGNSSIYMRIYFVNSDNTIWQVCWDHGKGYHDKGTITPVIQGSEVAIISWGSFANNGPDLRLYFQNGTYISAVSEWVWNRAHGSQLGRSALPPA

PA-IIL (PAIIL) = target: T2, PA-IIL (PAIIL) (Pseudomonas aeruginosa, UniProt Q9HYN5); test: competition assay: PA-IIL binding to human airway mucin
T2 construct: gene lecB
T2 sequence (Q9HYN5 entry or part of it): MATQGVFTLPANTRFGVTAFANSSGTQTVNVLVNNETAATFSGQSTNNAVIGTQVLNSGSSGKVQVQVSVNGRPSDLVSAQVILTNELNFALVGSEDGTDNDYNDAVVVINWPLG

[2] = target: T1, FleA (AFL, Aspergillus fumigatus lectin); test: competition plate assay: biotinylated FleA binding to immobilised human airway mucin; conditions: 10 mM CaCl2, TBS-Tween; 100 mM L-galactose

SMILES | IC50 [1] [µM] | further results
CCC/C=C/CO[C@H]1O[C@H](CO)[C@H](O)[C@H](O)[C@H]1O [(2E)-hexenyl α-D-galactopyranoside] | 15300 | –
CCC/C=C/CO[C@@H]1O[C@@H](C)[C@@H](O)[C@@H](O)[C@@H]1O [(2E)-hexenyl α-L-fucopyranoside] | 0.012 | IC50 (PA-IIL (PAIIL)): 1.6 µM
CCCCC/C=C/CO[C@@H]1O[C@@H](C)[C@@H](O)[C@@H](O)[C@@H]1O [(2E)-octenyl α-L-fucopyranoside] | 2100 | –
C[C@@H]1OC(O)[C@@H](O)[C@H](O)[C@@H]1O (stereo partly drawn) [L-fucose] | – | IC50 ([1]; 10 mM CaCl2, TBS-Tween, inhibition of FleA-mucin binding): 801 µM
OC[C@@H]1OC(O)[C@@H](O)[C@H](O)[C@@H]1O (stereo partly drawn) [L-galactose] | – | inhibition at 100 mM [2]: No inhibition was observed with galactose (Fig 1A)
C=CCO[C@@H]1O[C@@H](C)[C@@H](O)[C@@H](O)[C@@H]1O [allyl α-L-fucopyranoside] | 264 | –
CCCCCCO[C@@H]1O[C@@H](C)[C@@H](O)[C@@H](O)[C@@H]1O [hexyl α-L-fucopyranoside] | 361 | –
CO[C@@H]1O[C@@H](C)[C@@H](O)[C@@H](O)[C@@H]1O [methyl α-L-fucopyranoside] | 450 | –
